Measured values: publication PMC7526454 (JCI Insight, 2020)
Several values for one entry are separate records, joined by “and”; a condition that tells them apart may be missing. Equal entries are not always repeated. Starred links: 1 amine or outer side, 2 acyl side, 3 side chain; linkers in the order of their positions; H or OH if unused. Non-standard residues stand in square brackets, D forms with d. Groups on a side chain read outwards from the residue. No end group written: not given here. *: point of attachment. C20 diacid = O=C(O)CCCCCCCCCCCCCCCCCCC(=O)*; γGlu = O=C(O)[C@H](CCC(=O)[*:2])N[*:1]; AEEA = NCCOCCOCC(=O)O; Aib = CC(C)(N)C(=O)O

Assays:
pancreatic islets = assay: Pancreatic islet perifusion, insulin secretion; details: ex vivo perifusion, male mice, iAUC; GLP-1 300 pM, GIP 3 nM (after 1 μM Ex9), tirzepatide 1 nM
[1] = native ligand, during meal induced incretin secretion; cited from earlier work
GLP-1R [2] = target: T1, GLP-1R (Homo sapiens, UniProt P43220); assay: ARRB2 recruitment, CHO-K1 PathHunter enzyme fragment complementation; assay type: cell-based
T1 sequence (P43220 24-463): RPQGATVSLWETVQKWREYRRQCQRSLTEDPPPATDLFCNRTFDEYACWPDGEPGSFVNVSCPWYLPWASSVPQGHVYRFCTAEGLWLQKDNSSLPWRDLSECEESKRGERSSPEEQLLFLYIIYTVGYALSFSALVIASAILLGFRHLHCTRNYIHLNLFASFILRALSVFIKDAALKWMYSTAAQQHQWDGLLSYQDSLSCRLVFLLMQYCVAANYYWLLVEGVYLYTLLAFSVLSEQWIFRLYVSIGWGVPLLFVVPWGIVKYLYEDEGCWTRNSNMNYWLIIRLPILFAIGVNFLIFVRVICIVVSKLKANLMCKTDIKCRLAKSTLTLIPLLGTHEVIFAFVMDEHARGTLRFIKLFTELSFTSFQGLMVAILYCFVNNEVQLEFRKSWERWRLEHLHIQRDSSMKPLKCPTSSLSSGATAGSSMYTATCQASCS
Description: ARRB2 recruitment to human GIPR and GLP-1R was quantified in CHO-K1 PathHunter cells expressing C-terminally fused ProLink1 receptors and Enzyme Acceptor fused ARRB2 from DiscoverX (Eurofins). […] Cell vials were thawed and added at equal volume in respective assay medium as previously stated. Recruitment of ARRB2 to activated receptors occurred at 37°C for 90 minutes, followed by cell lysis by the addition of 10 μL detection mixture containing β-galactosidase 93-0001 substrate to quantitate functional enzyme fragment complementation. Chemiluminescent signal was developed for 60 minutes at room temperature and quantified using an EnVision plate reader. Raw data were normalized to percent activation compared with control wells, and the curves were fit to the 4-parameter logistic model in Genedata Screener. As an alternative approach to measure β-arrestin recruitment, bioluminescent resonance energy transfer (BRET) was performed. […] Freestyle HEK cells (R79007, Thermo Fisher Scientific) were transfected in antibiotic-free media using Fugene-6 complexed in optiMEM (Thermo Fisher Scientific). […] Emission was measured at 460 nm (donor) and 610 nm (acceptor) wavelengths. The BRET ratio was calculated as acceptor emission divided by donor emission. […] Agonist-stimulated protein-to-protein interaction of 2 fusion molecules were detected with Nano-Glo substrate and standard luminescent detection. […]

SNAP-tagged GLP-1R = target: T2, SNAP-tagged GLP-1R (Homo sapiens, UniProt P43220); assay: Real-time internalization assay, SNAP-tagged receptor; assay type: cell-based; details: HEK293; read-out: internalization of SNAP-tagged GLP-1R, Emax relative to GLP-1
T2 construct: expressed in transfected cells
T2 sequence (P43220 24-463): as above

GLP-1R [3] = target: T1, GLP-1R; assay: On-cell Western internalization assay, HA-GLP-1R-EGFP HEK293; assay type: cell-based; set-up: expressed in transfected cells; details: HEK293, surface GLP-1R 30 minutes after ligand, normalized to 1 μM GLP-1(7-36); mean (SEM, n); read-out: GLP-1R internalization, maximum effect relative to GLP-1
Description: For receptor internalization studies, DNA encoding human GIPR and GLP-1R with N-terminal 3X-HA epitope tags and C-terminal EGFP tags was constructed in pcDNA3.1.
HEK293 cells stably expressing HA-GIPR-EFGP or HA–GLP-1R–EFGP clones were plated into poly-D-lysine–coated 96-well microplates and cultured until cells reached 80%–90% confluency. On the day of assay, growth media was removed, and cells were rinsed once with prewarmed starvation media (growth media without serum or antibiotics, supplemented with 0.1% casein) and equilibrated with fresh media for 1 hour at 37°C, 5% CO2. […] Fixative was removed, and cells were washed in PBS and blocked with Odyssey blocking buffer (Licor) for 1 hour.

[4] = target: mouse GLP-1R–LgBiT (mouse) (UniProt O35659)
mouse GLP-1R–LgBiT (mouse), sequence (O35659 22-463): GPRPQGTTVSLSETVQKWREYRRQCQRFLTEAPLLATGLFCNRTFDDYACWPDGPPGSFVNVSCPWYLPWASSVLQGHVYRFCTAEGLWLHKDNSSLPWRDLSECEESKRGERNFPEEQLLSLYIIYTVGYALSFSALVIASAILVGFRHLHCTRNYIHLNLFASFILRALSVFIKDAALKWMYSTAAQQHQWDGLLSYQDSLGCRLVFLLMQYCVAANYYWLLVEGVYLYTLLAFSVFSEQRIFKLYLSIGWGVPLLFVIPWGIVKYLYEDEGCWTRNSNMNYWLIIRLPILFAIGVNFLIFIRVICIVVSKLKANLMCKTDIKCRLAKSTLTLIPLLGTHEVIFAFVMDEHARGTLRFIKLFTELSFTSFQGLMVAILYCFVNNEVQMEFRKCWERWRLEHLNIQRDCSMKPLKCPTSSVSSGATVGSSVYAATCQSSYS

[5] = rodents, acute glucose challenge; read-out: in vivo EC50; cited from earlier work
Source text: (§1) We recognize that calculating pRO values has caveats (see Methods) and propose its use mainly for generating hypotheses and as a tool to probe mechanistic biology. For perspective, though, when examining the pRO values of other ligands, we observe that GLP-1R occupancy is also relatively low (about 10%). Based on established data, this makes sense in terms of the in vivo sensitivity of the GLP-1R system. […] In humans, active GLP-1 and GI ...

GLP-1R [6] = details: read-out: in vitro EC50; cited from earlier work
Source text: as §1

[7] = target: T3, human GIP receptor (GIPR) (human, UniProt P48546-1 22-466); assay: cell-based or functional assay
T3 sequence (looked up): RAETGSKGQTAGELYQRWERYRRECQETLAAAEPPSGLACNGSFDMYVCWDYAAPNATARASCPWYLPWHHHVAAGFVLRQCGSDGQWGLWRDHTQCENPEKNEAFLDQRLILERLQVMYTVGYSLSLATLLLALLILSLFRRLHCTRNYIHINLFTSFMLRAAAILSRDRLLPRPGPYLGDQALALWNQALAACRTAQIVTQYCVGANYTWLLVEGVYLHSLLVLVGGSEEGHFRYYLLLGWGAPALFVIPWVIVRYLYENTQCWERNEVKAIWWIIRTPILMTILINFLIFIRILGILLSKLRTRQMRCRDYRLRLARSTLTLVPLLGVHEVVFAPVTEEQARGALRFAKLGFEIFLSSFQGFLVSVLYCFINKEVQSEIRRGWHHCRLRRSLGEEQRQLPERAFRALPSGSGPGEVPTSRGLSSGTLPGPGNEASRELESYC

[8] = target: T3, human GIP receptor (GIPR); assay: radioligand binding; competition with [125I]GIP(1-42)OH (GIPR) or [125I]GLP-1(7-36)NH2 (GLP-1R), ~0.12–0.20 nM, on membranes of HEK293 cells expressing the human receptor held on WGA-PVT SPA beads; 1.0 mM MgCl2, 2.5 mM CaCl2, 0.003% w/v Tween-20, 0.1% w/v bacitracin, 25 mM HEPES pH 7.4; 18 hours at room temperature; Ki by the Cheng-Prussoff correction; details: one partner purified
[9] = target: T3, human GIP receptor (GIPR); assay: radioligand binding; details: one partner purified

With `CC[C@H](C)[C@H](NC(=O)[C@H](CO)NC(=O)[C@H](Cc1ccc(O)cc1)NC(=O)[C@H](CC(=O)O)NC(=O)[C@H](CO)NC(=O)[C@@H](NC(=O)[C@H](Cc1ccccc1)NC(=O)[C@@H](NC(=O)CNC(=O)[C@H](CCC(=O)O)NC(=O)[C@H](C)NC(=O)[C@@H](N)Cc1ccc(O)cc1)[C@@H](C)O)[C@@H](C)CC)C(=O)N[C@@H](C)C(=O)N[C@@H](CCSC)C(=O)N[C@@H](CC(=O)O)C(=O)N[C@@H](CCCCN)C(=O)N[C@H](C(=O)N[C@@H](Cc1c[nH]cn1)C(=O)N[C@@H](CCC(N)=O)C(=O)N[C@@H](CCC(N)=O)C(=O)N[C@@H](CC(=O)O)C(=O)N[C@@H](Cc1ccccc1)C(=O)N[C@H](C(=O)N[C@@H](CC(N)=O)C(=O)N[C@@H](Cc1c[nH]c2ccccc12)C(=O)N[C@@H](CC(C)C)C(=O)N[C@@H](CC(C)C)C(=O)N[C@@H](C)C(=O)N[C@@H](CCC(N)=O)C(=O)N[C@@H](CCCCN)C(=O)NCC(=O)N[C@@H](CCCCN)C(=O)N[C@@H](CCCCN)C(=O)N[C@@H](CC(N)=O)C(=O)N[C@@H](CC(=O)O)C(=O)N[C@@H](Cc1c[nH]c2ccccc12)C(=O)N[C@@H](CCCCN)C(=O)N[C@@H](Cc1c[nH]cn1)C(=O)N[C@@H](CC(N)=O)C(=O)N[C@H](C(=O)N[C@H](C(=O)N[C@@H](CCC(N)=O)C(N)=O)[C@@H](C)O)[C@@H](C)CC)C(C)C)[C@@H](C)CC` [GIP(1-42), GIP(1-42)NH2] the “insulin secretion of Arrb1βcell–/– islets compared with control islets” value (pancreatic islets) was “not different”.

For `CC[C@H](C)[C@H](NC(=O)[C@H](Cc1ccccc1)NC(=O)[C@H](CCC(=O)O)NC(=O)[C@H](CCCCN)NC(=O)[C@H](C)NC(=O)[C@H](C)NC(=O)[C@H](CCC(N)=O)NC(=O)CNC(=O)[C@H](CCC(=O)O)NC(=O)[C@H](CC(C)C)NC(=O)[C@H](Cc1ccc(O)cc1)NC(=O)[C@H](CO)NC(=O)[C@H](CO)NC(=O)[C@@H](NC(=O)[C@H](CC(=O)O)NC(=O)[C@H](CO)NC(=O)[C@@H](NC(=O)[C@H](Cc1ccccc1)NC(=O)[C@@H](NC(=O)CNC(=O)[C@H](CCC(=O)O)NC(=O)[C@H](C)NC(=O)[C@@H](N)Cc1c[nH]cn1)[C@@H](C)O)[C@@H](C)O)C(C)C)C(=O)N[C@@H](C)C(=O)N[C@@H](Cc1c[nH]c2ccccc12)C(=O)N[C@@H](CC(C)C)C(=O)N[C@H](C(=O)N[C@@H](CCCCN)C(=O)NCC(=O)N[C@@H](CCCNC(=N)N)C(N)=O)C(C)C` [GLP-1(7-36), GLP-1(7-36)NH2], the “Css (free): range of Cmax values” [1] is given as 5-15^E pM and the “insulin secretion of Arrb1βcell–/– islets compared with control islets” value (pancreatic islets) is given as “secreted more insulin”.

Work on `CC[C@H](C)[C@H](NC(=O)[C@H](CC(C)C)NC(=O)[C@H](Cc1c[nH]c2ccccc12)NC(=O)[C@H](CCC(N)=O)NC(=O)[C@@H](NC(=O)[C@H](Cc1ccccc1)NC(=O)[C@H](C)NC(=O)[C@H](CCCCNC(=O)COCCOCCNC(=O)COCCOCCNC(=O)CC[C@H](NC(=O)CCCCCCCCCCCCCCCCCCC(=O)O)C(=O)O)NC(=O)[C@H](CCC(N)=O)NC(=O)[C@H](C)NC(=O)[C@@H](NC(=O)[C@H](CCCCN)NC(=O)[C@H](CC(=O)O)NC(=O)[C@H](CC(C)C)NC(=O)C(C)(C)NC(=O)[C@@H](NC(=O)[C@H](CO)NC(=O)[C@H](Cc1ccc(O)cc1)NC(=O)[C@H](CC(=O)O)NC(=O)[C@H](CO)NC(=O)[C@@H](NC(=O)[C@H](Cc1ccccc1)NC(=O)[C@@H](NC(=O)CNC(=O)[C@H](CCC(=O)O)NC(=O)C(C)(C)NC(=O)[C@@H](N)Cc1ccc(O)cc1)[C@@H](C)O)[C@@H](C)O)[C@@H](C)CC)[C@@H](C)CC)C(C)C)C(=O)N[C@@H](C)C(=O)NCC(=O)NCC(=O)N1CCC[C@H]1C(=O)N[C@@H](CO)C(=O)N[C@@H](CO)C(=O)NCC(=O)N[C@@H](C)C(=O)N1CCC[C@H]1C(=O)N1CCC[C@H]1C(=O)N1CCC[C@H]1C(=O)N[C@@H](CO)C(N)=O` [Tirzepatide] yielded an Emax (GLP-1R [2]) of less than 10%, an Emax (SNAP-tagged GLP-1R) of less than 40% and an Emax (GLP-1R [3]) of 40%.

In the case of Tirzepatide (LY3298176) (peptide), the other [4] is reported as 6.6 nM and 2.4 nM.

In the case of exendin-4, the EC50 [5] is listed as 40 pM and the EC50 (GLP-1R [6]) is listed as 260 pM.

B1: Semaglutide (peptide)
chain: HAEGTFTSDVSSYLEGQAAKEFIAWLVRGRG
modifications: Aib at the 2nd residue (written X in the letters); C18 diacid-γGlu-(AEEA)2 on the lysine at the 20th residue
With B1 the “EC50 of cAMP accumulation, HEK293 cells with low density of human GIPR (1,700 receptors/cell)” value [7] was greater than 850000 pM, the “EC50 of cAMP accumulation, HEK293 cells with medium density of human GIPR (6,400 receptors/cell)” value [7] was greater than 100000 pM and the Ki [8] was greater than 500000 pM.

Y[Aib]EGTFTSDYSI[Aib]LDKIAQK([AEEA-AEEA-γGlu-C20 diacid])AFVQWLIAGGPSSGAPPPS-NH2 [Tirzepatide (LY3298176)] gave a Ki [9] of 163 pM.
